Test results: article PMC11149917, “Translational and Therapeutic Evaluation of RAS-GTP Inhibition by RMC-6236 in RAS-Driven Cancers” (Cancer Discovery, 2024)

Test system: caspase-3/7 in panel of 78 cancer cell lines
Assay: Cell panel CaspaseGlo-3/7 apoptosis induction
Format: cell-based, human
Method: A panel of 78 cancer cell lines harboring mutant and wild-type RAS was selected for screening at Crown Bioscience (Supplementary Table S2). The panel consisted of cell lines with any substitution at position 12 of KRAS, cell lines with any substitutions at position 61 of NRAS, and cell lines with a BRAF^V600E mutation. […] Cells were incubated for 120 hours prior to measurement of adenosine triphosphate (ATP) levels using the CellTiter-Glo Luminescent Cell Viability Assay (CTG; Promega, G7572), a method of determining the number of metabolically active cells based on quantitation of cellular ATP, according to the manufacturer's instructions. To measure induction of apoptosis, cells were incubated with RMC-6236 for 48 hours prior to measuring cleavage of a proluminescent caspase-3/7 DEVD-aminoluciferin substrate using the CaspaseGlo-3/7 Assay (Promega, G8092) according to the manufacturer’s instructions.

## CCn1c(-c2cc(N3CCN(C)CC3)cnc2[C@H](C)OC)c2c3cc(ccc31)-c1csc(n1)C[C@H](NC(=O)[C@H]1C[C@@H]1C)C(=O)N1CCC[C@H](N1)C(=O)OCC(C)(C)C2 [RMC-6236]
LCLC97TM1, KRAS G12V, Lung
  Caspase-3/7 Activation (EC200, nM): 36.9 nM
LS123, KRAS G12S, Intestine/Large/Colorectum
  Caspase-3/7 Activation (EC200, nM): >100 nM
LS174T, KRAS G12D, Intestine/Large/Colorectum
  Caspase-3/7 Activation (EC200, nM): >100 nM
LS180, KRAS G12D, Intestine/Large/Colorectum
  Caspase-3/7 Activation (EC200, nM): >100 nM
LS513, KRAS G12D, Intestine/Large/Colorectum
  Caspase-3/7 Activation (EC200, nM): 11.0 nM
MIAPACA2, KRAS G12C, Pancreas
  Caspase-3/7 Activation (EC200, nM): >100 nM
NCIH23, KRAS G12C, Lung
  Caspase-3/7 Activation (EC200, nM): >100 nM
NCIH358, KRAS G12C, Lung
  Caspase-3/7 Activation (EC200, nM): 29.7 nM
NCIH441, KRAS G12V, Lung
  Caspase-3/7 Activation (EC200, nM): >100 nM
NCIH727, KRAS G12V, Lung
  Caspase-3/7 Activation (EC200, nM): 11.9 nM
NCIH1299, NRAS Q61K, Lung
  Caspase-3/7 Activation (EC200, nM): >100 nM
NCIH1373, KRAS G12C, Lung
  Caspase-3/7 Activation (EC200, nM): 79.6 nM
NCIH1792, KRAS G12C, Lung
  Caspase-3/7 Activation (EC200, nM): 6.6 nM
NCIH2009, KRAS G12A, Lung
  Caspase-3/7 Activation (EC200, nM): 90.2 nM
NCIH2087, NRAS Q61K, Lung
  Caspase-3/7 Activation (EC200, nM): 5.1 nM
NCIH2122, KRAS G12C, Lung
  Caspase-3/7 Activation (EC200, nM): 57.5 nM
NOZ, KRAS G12V, Liver/Bile duct
  Caspase-3/7 Activation (EC200, nM): 23.6 nM
NRAS^Q61X cell lines
  cell lines exhibiting at least a 2-fold increase in caspase activation: 5 out of 13
OVCAR5, KRAS G12V, Ovary
  Caspase-3/7 Activation (EC200, nM): 2.4 nM
PANC1, KRAS G12D, Pancreas
  Caspase-3/7 Activation (EC200, nM): >100 nM
PANC0327, KRAS G12V, Pancreas
  Caspase-3/7 Activation (EC200, nM): >100 nM
PANC0504, KRAS G12D, Pancreas
  Caspase-3/7 Activation (EC200, nM): 4.8 nM
PANC1005, KRAS G12D, Pancreas
  Caspase-3/7 Activation (EC200, nM): 25.2 nM
PL45, KRAS G12D, Pancreas
  Caspase-3/7 Activation (EC200, nM): 83.1 nM
RBE, KRAS G12V, Liver/Bile duct
  Caspase-3/7 Activation (EC200, nM): >100 nM
RKO*, BRAF V600E, Intestine/Large/Colorectum
  Caspase-3/7 Activation (EC200, nM): >100 nM
SHP77, KRAS G12V, Lung
  Caspase-3/7 Activation (EC200, nM): >100 nM
SKCO1, KRAS G12V, Intestine/Large/Colorectum
  Caspase-3/7 Activation (EC200, nM): 9.0 nM
SKLU1, KRAS G12D, Lung
  Caspase-3/7 Activation (EC200, nM): 29.7 nM
SKMEL2, NRAS Q61R, Skin
  Caspase-3/7 Activation (EC200, nM): 26.0 nM
SKNAS, NRAS Q61K, Brain and Nerves
  Caspase-3/7 Activation (EC200, nM): >100 nM
SKNSH, NRAS Q61K, Brain and Nerves
  Caspase-3/7 Activation (EC200, nM): >100 nM
SNU1, KRAS G12D, Stomach
  Caspase-3/7 Activation (EC200, nM): >100 nM
SNU387, NRAS Q61K, Liver
  Caspase-3/7 Activation (EC200, nM): >100 nM
SNU601, KRAS G12D, Stomach
  Caspase-3/7 Activation (EC200, nM): 73.1 nM
SNU719, NRAS Q61L, Stomach
  Caspase-3/7 Activation (EC200, nM): 57.7 nM
SNUC2A, KRAS G12D, Intestine/Large/Colorectum
  Caspase-3/7 Activation (EC200, nM): >100 nM
SU8686, KRAS G12D, Pancreas
  Caspase-3/7 Activation (EC200, nM): 61.9 nM
SW403, KRAS G12V, Intestine/Large/Colorectum
  Caspase-3/7 Activation (EC200, nM): >100 nM
SW480, KRAS G12V, Intestine/Large/Colorectum
  Caspase-3/7 Activation (EC200, nM): >100 nM
SW620, KRAS G12V, Intestine/Large/Colorectum
  Caspase-3/7 Activation (EC200, nM): >100 nM
SW626, KRAS G12V, Ovary
  Caspase-3/7 Activation (EC200, nM): >100 nM
SW756, KRAS G12C, Ovary
  Caspase-3/7 Activation (EC200, nM): >100 nM
SW837, KRAS G12C, Intestine/Large/Colorectum
  Caspase-3/7 Activation (EC200, nM): >100 nM
SW900, KRAS G12V, Lung
  Caspase-3/7 Activation (EC200, nM): 3.2 nM
SW1116, KRAS G12A, Intestine/Large/Colorectum
  Caspase-3/7 Activation (EC200, nM): >100 nM
SW1271, NRAS Q61R, Lung
  Caspase-3/7 Activation (EC200, nM): >100 nM
SW1463, KRAS G12C, Intestine/Large/Colorectum
  Caspase-3/7 Activation (EC200, nM): 28.5 nM
SW1573, KRAS G12C, Lung
  Caspase-3/7 Activation (EC200, nM): >100 nM
SW1990, KRAS G12D, Pancreas
  Caspase-3/7 Activation (EC200, nM): 97.1 nM
UMUC3, KRAS G12C, Bladder
  Caspase-3/7 Activation (EC200, nM): 99.8 nM
YCC2, KRAS G12S, Stomach
  Caspase-3/7 Activation (EC200, nM): >100 nM
